From patent US20190086410A1, “FUNCTION-BASED PROBES FOR ENVIRONMENTAL MICROBIOME ANALYSIS AND METHODS OF MAKING AND USING THE SAME” (Battelle Memorial Institute, priority 2017, published 2019)

Tests used:
[1] = test system: glucuronidase activity in the gut microbiome; type: in vivo, mouse; conditions: in 4 of 5 sets of littermates; vancomycin in water vs water
Method: Microbial cells from the mouse gut were suspended in PBS with a protease inhibitor (COMPLETE® EDTA-free Protease Inhibitor, ROCHE®) and lysed via bead beating (BULLET BLENDER®). β-glucuronidase assays were conducted as previously described with modifications. Briefly, 4-methylumbelliferyl-β-D-glucuronide (4-MUG; 1 mM) was added to 50 μL lysate (0.9 μg total protein) for a final concentration of 500 μM. At specific time points (0-240 minutes), 10 μL aliquots of each reaction were added to 90 μL of 0.1 M […] (pH=10) and stored in the dark. Fluorescence was measured using a plate reader (MOLECULAR BIOSCIENCES®), and the amount of hydrolyzed substrate was calculated relative to a standard curve. The rate (mM/s) was determined via linear regression (GRAPHPAD® PRISM®), and activity was calculated as rate per μg protein. Values from three independent replicates were averaged, and activity was compared across biological replicates (n=5) using a ratio paired t-test.
Pairs of littermates were exposed to water with or without vancomycin, an antibiotic known to target Firmicutes in the gut microbiota (FIG. 12). As Firmicutes made up most the probe-positive taxa in the non-treated mice (FIG. 13), vancomycin treatment may shift the GlcA-ABP+ population composition. […] Accordingly, the intensity of GlcA-ABP+ labeling decreased as well (FIG. 14B).

[2] = test system: gut microbiota; type: in vivo, mouse
[3] = test system: β-glucuronidase (uidA); type: cell-based, E. coli; conditions: ΔuidA strain lacking β-glucuronidase
[4] = target: β-glucuronidase (uidA) (Escherichia coli, UniProt P05804); type: cell-based, E. coli
β-glucuronidase (uidA) (Escherichia coli, UniProt P05804), sequence (P05804 whole entry): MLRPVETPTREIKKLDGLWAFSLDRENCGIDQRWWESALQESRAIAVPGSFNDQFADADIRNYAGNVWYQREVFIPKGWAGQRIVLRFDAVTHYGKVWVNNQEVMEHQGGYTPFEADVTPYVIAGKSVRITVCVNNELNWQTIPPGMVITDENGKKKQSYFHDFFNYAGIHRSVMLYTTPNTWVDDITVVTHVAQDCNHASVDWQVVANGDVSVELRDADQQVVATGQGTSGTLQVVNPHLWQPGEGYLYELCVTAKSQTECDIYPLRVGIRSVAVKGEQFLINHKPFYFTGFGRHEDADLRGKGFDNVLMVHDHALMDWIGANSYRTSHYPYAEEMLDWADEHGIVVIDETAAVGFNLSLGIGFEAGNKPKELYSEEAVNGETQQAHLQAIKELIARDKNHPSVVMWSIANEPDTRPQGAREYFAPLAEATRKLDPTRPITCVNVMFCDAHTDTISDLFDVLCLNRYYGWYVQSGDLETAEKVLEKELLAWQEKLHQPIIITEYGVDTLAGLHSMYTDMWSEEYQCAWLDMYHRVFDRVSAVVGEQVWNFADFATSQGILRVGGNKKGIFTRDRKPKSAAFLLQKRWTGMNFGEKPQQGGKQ

[5] = test system: mix of WT E. coli and L. plantarum; experiment: Whole-cell probe labeling coupled to flow cytometry/FACS, mix of E. coli and L. plantarum; type: cell-based, Lactobacillus plantarum
[6] = test system: β-glucuronidases from Escherichia coli, Streptococcus agalactiae, and Clostridium perfringens; type: biochemical; conditions: wild-type enzymes; fluorescence SDS-PAGE
[7] = test system: Lactobacillus plantarum, which lacks a β-glucuronidase; experiment: Whole-cell probe labeling coupled to flow cytometry/FACS, L. plantarum only; type: cell-based; conditions: 50 μM
[8] = test system: WT E. coli; experiment: Whole-cell probe labeling coupled to flow cytometry/FACS, E. coli only; type: cell-based; conditions: 50 μM
[9] = vancomycin-treated vs untreated littermates

## CN[C@H](CC(C)C)C(=O)N[C@H]1C(=O)N[C@@H](CC(N)=O)C(=O)N[C@H]2C(=O)N[C@H]3C(=O)N[C@H](C(=O)N[C@H](C(=O)O)c4cc(O)cc(O)c4-c4cc3ccc4O)[C@H](O)c3ccc(c(Cl)c3)Oc3cc2cc(c3O[C@@H]2O[C@H](CO)[C@@H](O)[C@H](O)[C@H]2O[C@H]2C[C@](C)(N)[C@H](O)[C@H](C)O2)Oc2ccc(cc2Cl)[C@H]1O [Vancomycin, vancomycin]
[1]
  glucuronidase activity in gut microbiome after treatment: reduced, but did not eliminate
[2]; [9]
  relative abundance of Firmicutes: dramatically decreased
  relative abundance of Proteobacteria, Verrucomicrobia, and Bacteroidetes: corresponding increase
[2]; vancomycin-treated vs untreated mice
  intensity of GlcA-ABP+ labeling after treatment: decreased

## C#CCCCC(=O)Nc1ccc(OC2OC(C(=O)O)C(O)C(O)C2O)c(C(F)F)c1 (stereo not drawn) [GlcA-ABP, 6-(2-(difluoromethyl)-4-(hex-5-ynamido)phenoxy)-3,4,5-trihydroxytetrahydro-2H-pyran-2-carboxylic acid]
[3]
  labeling in ΔuidA E. coli: no labeling
[4]; SDS-PAGE and flow cytometry
  labeling in ΔuidA complemented with uidA: restoration of labeling
[4]; WT E. coli, SDS-PAGE
  labeling of β-glucuronidase in wild type (WT) E. coli: Dose-dependent labeling
[5]; mixture of E. coli and L. plantarum, 50 μM
  cell labeling, flow cytometry: an intermediate amount
[6]
  GlcA-ABP labeling intensity of purified β-glucuronidases: corresponded with the catalytic efficiency of these enzymes
[7]
  cell labeling, flow cytometry: none
[8]
  cell labeling, flow cytometry: labeling was observed

## C#CCCCCNC(=O)CI [IAA, iodoacetamide alkyne, reference compound]
[5]; E. coli only, L. plantarum only, or mix, 10 μM
  cell labeling by positive control probe, flow cytometry: all cells were labeled
